Assay results as given in PubChem BioAssay (NCI).
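How tested: cells in 96-well plates exposed to compound for 48 hours at five concentrations. Abbreviation: GI50, concentration required for 50% inhibition of growth. TGI marks complete inhibition of growth.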

Assays:
Assay in all cases: DTP human tumour cell line panel, 48 h
KM12 colon = system: KM12 colon
COLO 205 colon = system: COLO 205 colon
PC-3 prostate = system: PC-3 prostate
UACC-257 melanoma = system: UACC-257 melanoma
SF-268 CNS = system: SF-268 CNS
IGROV1 ovarian = system: IGROV1 ovarian
DU-145 prostate = system: DU-145 prostate
UACC-62 melanoma = system: UACC-62 melanoma
MCF7 breast = system: MCF7 breast
SK-OV-3 ovarian = system: SK-OV-3 ovarian

Row | Compound | TGI (KM12 colon) [µM] | TGI (COLO 205 colon) [µM] | TGI (PC-3 prostate) [µM] | TGI (UACC-257 melanoma) [µM] | TGI (SF-268 CNS) [µM] | TGI (IGROV1 ovarian) [µM] | TGI (DU-145 prostate) [µM] | TGI (UACC-62 melanoma) [µM] | TGI (MCF7 breast) [µM] | TGI (SK-OV-3 ovarian) [µM] | GI50 (KM12 colon) [µM] | GI50 (PC-3 prostate) [µM] | GI50 (UACC-257 melanoma) [µM] | GI50 (SF-268 CNS) [µM] | GI50 (IGROV1 ovarian) [µM] | GI50 (DU-145 prostate) [µM] | GI50 (UACC-62 melanoma) [µM] | GI50 (MCF7 breast) [µM]
1 | O=C(O)c1nc2ccc(C(F)(F)F)cc2nc1Nc1ccc(F)cc1 | 63 | 44.1 | 48 | 78.1 | 48.1 | 62.6 | 85 | 27.9 | 61.5 |  |  |  |  |  |  |  |  | 
2 | N/C1=C/C(=O)NC(=O)c2c(c3ccccc3oc2=O)C1 | > 100 | > 100 | > 100 | > 100 | > 100 | > 100 | > 100 | > 100 |  |  |  |  |  |  |  |  |  | 
3 | Cn1cc(S(=O)(=O)NC(=O)Nc2ccc(Cl)cc2)c(=O)c2ccc(F)cc21 | > 100 | > 100 | > 100 | > 100 | > 100 | > 100 | > 100 | 63.4 |  | > 100 |  |  |  |  |  |  |  | 
4 | C/C(N=NS(=O)(=O)c1ccc([N+](=O)[O-])cc1)=C1\C=CC=CN1O | > 100 |  |  | > 100 | > 100 | > 100 |  | > 100 |  | > 100 |  |  |  |  |  |  |  | 
5 | C[C@@H]1CC(=O)C[C@@H]2CC[C@H]3[C@@H]4CC[C@H](OC(=O)c5cccc6cc7ccccc7nc56)[C@H]4CC[C@@H]3[C@H]21 | 31.5 | 53.8 | 27.1 | 30.8 | 20.9 | 19.2 | 28.7 | 28.4 |  | 66.7 |  |  |  |  |  |  |  | 
6 | O=C1/C(=C/c2ccc(O)cc2)COc2ccc(O)c(O)c21 | 6.04 |  | 13 | > 100 | > 100 | 7.32 | 5.69 | 4.36 | > 100 |  | 1.99 | 2.48 | 4.5 | 2.72 | 2.45 | 2.19 | 1.99 | 2.18
7 | CC(=O)OC1[C@H](OC(C)=O)C2=C(C)[C@@H](OC(C)=O)C[C@@]2(C(C)(C)O)[C@@H](OC(C)=O)[C@H]2[C@@]1(C)[C@@H](OC(C)=O)CC(OC(C)=O)[C@]21CO1 (some centres not stated) | > 100 | > 100 | > 100 | > 100 | > 100 |  | > 100 | > 100 | > 100 | > 100 |  |  |  |  |  |  |  | 
8 | C=C=CC(NC(=O)c1ccccc1)(C(=O)O)C(F)(F)F (configuration not stated) | > 100 | > 100 |  | > 100 | > 100 | > 100 |  |  |  |  |  |  |  |  |  |  |  | 
9 | C(=Nc1ccc(-c2nc3ccccc3s2)cc1)c1ccc[nH]1 | 71.3 | 31.8 | 31.5 | 31.2 | 52.5 | 40.6 | 34.5 | 30.7 |  | 51.6 |  |  |  |  |  |  |  | 
10 | O=C(O)/C=C/c1c[nH]c(=O)[nH]c1=O | > 500 | > 500 |  | > 500 | > 500 | > 500 |  | > 500 | > 500 | > 500 |  |  |  |  |  |  |  | 
11 | CC12CCC(CC1)C(C)(C)O2 | 118 | 99.6 |  | 73.7 | 119 | 86.3 |  | 69.6 | 27.9 | 223 |  |  |  |  |  |  |  | 
12 | Cc1cccc(N2C(=O)C3c4[nH]c5ccc(C)cc5c4C4CCC(C(C)(C)C)CC4C3C2=O)c1 (configuration not stated) | 38 | > 100 | 31.3 | > 100 | 34.9 | > 100 | 38.7 | > 100 |  |  |  |  |  |  |  |  |  | 
13 | CNc1ncnc2c1nc(NC1CCCC1)n2C1OC(CO)C(O)C1O (configuration not stated) | > 100 | > 100 | > 100 |  | > 100 |  | > 100 | > 100 | > 100 | > 100 |  |  |  |  |  |  |  | 
14 | CC1(C)OC2OC(C(COS(=O)(=O)C(F)(F)F)N=[N+]=[N-])C(OC(=O)c3ccccc3)C2O1 (configuration not stated) | > 100 | > 100 | > 100 | > 100 | > 100 |  | > 100 | > 100 | > 100 | > 100 |  |  |  |  |  |  |  | 
15 | CC(C)=CC[C@]12CCN(C)[C@H]1N(S(=O)(=O)c1ccccc1)c1ccccc12 | > 100 |  | 98.6 | > 89.6 | > 100 | > 100 | > 100 | > 62 | > 72.9 | > 100 |  |  |  |  |  |  |  | 
16 | COC(=O)C1(SC)C2CCC3C2CCC31 (configuration not stated) |  | > 100 | > 100 | > 100 | > 100 | > 100 | > 100 |  | > 100 | > 100 |  |  |  |  |  |  |  | 
17 | CN(CCNC(=O)c1c[nH]c2c1Cc1ccccc1-2)CCNC(=O)c1c[nH]c2c1Cc1ccccc1-2 | > 100 | > 100 | 41.9 | > 100 | > 100 | > 100 | > 100 | 40.9 | 86 |  |  |  |  |  |  |  |  | 
